# Measured values: patent publication US20030176368A1, “Synthesis of epothilones, intermediates thereto and analogues thereof” (priority 2001, published 2003)
# Read-outs that look alike come from different tables or passages of the source.
# What was measured:
# [1] = tested on: CCRF-CEM/VBL100; test: XTT cytotoxicity assay, vinblastine-resistant CCRF-CEM/VBL100 cells; format: cell-based, human
# Description: (§1) XTT assay following 72 h inhibition. CCRF-CEM is a human T-cell acute lymphoblastic leukemia cell line. The CCRF-CEM/VBL100, CCRF-CEM/VM1, and CCRF-CEM/Taxol cell lines all overexpress P-glycoprotein and display a multidrug resistance phenotype to MDR-associated oncolytics. (Chou et al. Proc. Natl. Acad. Sci. USA 98:8113, 2001; incorporated herein by reference).
# (§2) A typical experiment invovles culturing cells (e.g., CCRF-CEM) at an initial density of 2-5×10^4 cells per ml. They are maintained in a 5% CO2-humidified atmosphere at 37° C. in RPMI medium 1640 (GIBCO/BRL) containing penicillin (100 units/ml), streptomycin (100 μg/ml) (GIBCO/BRL), and 5% heat-inactivated fetal bovine serum. For cells that were grown in suspension (such as CCRF-CEM and its sublines), cytotoxicitiy is measured by using the 2,-3-bis(2-methoxy-4-nitro-5-sulfophenyl)-5 carboxanilide)-2H terazodium hydroxide (XTT)-microculture tetrazonium method in duplicate in 96-well microtiter plates. For both methods, the absorbance of each well is measured with a microplate reader (EL-340, Bio-Tek, Burlington, Vt.). Each run entails six or seven concentrations of the tested drugs. Dose-effect relationship data are analyzed with the median-effect plot.
# (§3) The CCRF-CEM human T cells, acute lymphoblastic leukemic cells, its teniposide-resistant subline (CCRF-CEM/VM1) and vinblastine-resistant subline (CCRF-CEM/VBL100) are obtained from W. T. Beck (University of Illinois, Chicago, Ill.).
# [2] = tested on: CCRF-CEM/Taxol; test: XTT cytotoxicity assay, taxol-resistant CCRF-CEM/Taxol cells; format: cell-based, human; conditions: for activity in CCRF-CEM cell lines resistant to Taxol: Example 12, in words
# Description: as §1, §2
# [3] = tested on: CCRF-CEM; test: XTT cytotoxicity assay, CCRF-CEM cells; format: cell-based, human; conditions: for activity in CCRF-CEM cell lines: Example 12, in words
# Description: as §1, §2, §3
# [4] = tested on: tubulin; test: Tubulin binding: formation of microtubules in the presence of the compounds; format: biochemical
# Source text: Indeed, the microtubule stabilizing ability closely parallels the observed cytotoxicity data.
# [5] = tested on: CCRF-CEM/VM1; test: XTT cytotoxicity assay, teniposide-resistant CCRF-CEM/VM1 cells; format: cell-based, human
# Description: as §1, §2, §3
# [6] = Stability on exposure to murine plasma; format: in vitro ADME; conditions: compared with the parent compound
# Source text: See Chou et al. Proc. Natl. Acad. Sci. USA 98:8113, 2001, incorporated herein by reference, for details.
# However, the apparently disappointing murine in vivo results should be viewed in the context of reports that dEpoB itself evidenced a degree of bioinstability in murine plasma; yet had much longer plasma half-lives in higher organisms, including humans (Chou et al. J. Proc. Natl. Acad. Sci. USA 98:8113, 2001; incorporated herein by reference). The observed discrepancy in efficacy between mice and other mammals, including humans, has been ascribed to higher esterase levels in rodents.
# [7] = Homo sapiens, CCRF-CEM, Example 5 Table 1, 72 h inhibition, read-out: In vitro Cytotoxicities (IC50) C/VBL100
# [8] = Homo sapiens, CCRF-CEM, Example 5 Table 1, 72 h inhibition, read-out: In vitro Cytotoxicities (IC50) CCRF-CEM(C)
# [9] = Homo sapiens, CCRF-CEM, Example 11 Table 2, XTT assay following 72-h inhibition, read-out: In Vitro Cytotoxicities (IC50) CCRF-CEM/VBL100
# [10] = Homo sapiens, CCRF-CEM, Example 11 Table 2, XTT assay following 72-h inhibition, read-out: In Vitro Cytotoxicities (IC50) CCRF-CEM/TAXOL
# [11] = Homo sapiens, CCRF-CEM, Example 11 Table 2, XTT assay following 72-h inhibition, read-out: In Vitro Cytotoxicities (IC50) CCRF-CEM
# [12] = Homo sapiens, CCRF-CEM, Example 11 Table 2, XTT assay following 72-h inhibition, read-out: In Vitro Cytotoxicities (IC50) CCRF-CEM/VMI
# [13] = Homo sapiens, CCRF-CEM, Example 5 Table 1, 72 h inhibition, read-out: In vitro Cytotoxicities (IC50) C/Taxol
# [14] = Homo sapiens, CCRF-CEM, Example 5 Table 1, 72 h inhibition, read-out: In vitro Cytotoxicities (IC50) C/VM1
# [15] = Example 6 table, XTT assay following 72 h inhibition, read-out: CCRF-CEM/VBL (IC50 (μM))
# [16] = XTT assay following 72 h inhibition, read-out: In vitro Cytotoxicities (IC50) CCRF-CEM/VBL100
# [17] = XTT assay following 72 h inhibition, read-out: In vitro Cytotoxicities (IC50) CCRF-CEM/Taxol
# [18] = Example 6 table, XTT assay following 72 h inhibition, read-out: CCRF-CEM (IC50 (μM))
# [19] = XTT assay following 72 h inhibition, read-out: In vitro Cytotoxicities (IC50) CCRF-CEM
# [20] = XTT assay following 72 h inhibition, read-out: In vitro Cytotoxicities (IC50) CCRF-CEM/VM1
# [21] = Microtubules formed in the presence of dEpoB is defined as 100%
molecule,measurement,setting,value
CC1=C/C[C@@H](/C(C)=C/c2coc(C)n2)OC(=O)C[C@H](O)C(C)(C)C(=O)[C@H](C)[C@@H](O)[C@@H](C)C\C=C\1 [19-oxa epothilone 490],IC50,"[1]; Homo sapiens, CCRF-CEM, Example 9 table, read-out: Cell Growth Inhibition (IC50) CCRF-CEM/VBL",0.06 µM
same,IC50,"[2]; Homo sapiens, CCRF-CEM, Example 9 table, read-out: Cell Growth Inhibition (IC50) CCRF-CEM/taxol",40 nM
same,IC50,"[3]; Homo sapiens, CCRF-CEM, Example 9 table, read-out: Cell Growth Inhibition (IC50) CCRF-CEM",0.015 µM
"10,11-dehydro-14,15-[18]desoxyepothilone B [[18]ddEpoB]",% Tubulin Binding,[4]; Example 5 Table 1,51%
C/C1=C/C[C@@H](/C(C)=C/c2csc(C)n2)OC(=O)C[C@H](O)C(C)(C)C(=O)[C@H](C)[C@@H](O)[C@@H](C)CC2CC12 (stereo partly shown) [15 (cyclopropyl)],IC50,[1]; [7],0.141 µM
same,IC50,[3]; [8],0.077 µM
same,% Tubulin Binding,[4]; Example 5 Table 1,84%
"CC[C@]1(O)C[C@@H]2CN(CCc3c([nH]c4ccccc34)[C@@](C(=O)OC)(c3cc4c(cc3OC)N(C)[C@H]3[C@@](O)(C(=O)OC)[C@H](OC(C)=O)[C@]5(CC)C=CCN6CC[C@]43[C@@H]65)C2)C1 [vinblastine, reference compound]",IC50,[1]; [9],0.122 µM
same,IC50,[2]; [10],18 nM
same,IC50,[3]; [11],0.0008 µM
same,IC50,[5]; [12],1.4 nM
C/C1=C/C[C@@H](/C(C)=C/c2csc(C)n2)OC(=O)C[C@H](O)C(C)(C)C(=O)[C@H](C)[C@@H](O)[C@@H](C)C[C@@H](O)[C@@H]1O [12 (dihydroxy)],IC50,[1]; [7],99 µM
same,IC50,[2]; [13],16800 nM
same,IC50,[3]; [8],1 µM
same,IC50,[5]; [14],2350 nM
same,% Tubulin Binding,[4]; Example 5 Table 1,31%
"C/C(=C\c1csc(C)n1)[C@@H]1C/C=C(/C(F)(F)F)C/C=C/C[C@H](C)[C@H](O)[C@@H](C)C(=O)C(C)(C)[C@@H](O)CC(=O)O1 [27-Tn-F-[17]ddEpoB (22), 10,11-dehydro-13,14-desoxy-27-trifluoro-[17]epothilone B]",IC50,"[1]; Homo sapiens, CCRF-CEM, Example 6 table, XTT assay following 72 h inhibition, read-out: CCRF-CEM/VBL (IC50 (μM))",0.191 µM
same,stability in mouse blood plasma,[6],more stable
same,IC50,"[3]; Homo sapiens, CCRF-CEM, Example 6 table, XTT assay following 72 h inhibition, read-out: CCRF-CEM (IC50 (μM))",0.068 µM
C/C(=C\c1csc(C)n1)[C@@H]1C/C=C(/CF)CCC[C@H](C)[C@H](O)[C@@H](C)C(=O)C(C)(C)[C@@H](O)CC(=O)O1 [Compound 26F-EpoD],activity in CCRF-CEM cell lines resistant to Taxol,[2],demonstrated activity
same,IC50,"[2]; Example 12, read-out: activity for CCRF-CEM/Taxol resistant cell lines",~11 nM
same,activity in CCRF-CEM cell lines,[3],demonstrated activity
same,IC50,"[3]; Example 12, read-out: activity for CCRF-CEM cell lines",~0.0015 µM
"CC1=CCC(C(C)=Cc2csc(C)n2)OC(=O)CC(O)C(C)(C)C(=O)C(C)C(O)C(C)CC=CC1 (stereo not shown) [[17]ddEpoB, 10,11-dehydro-13,14-[17]desoxyepothilone B]",IC50,[1]; [15],0.126 µM
same,IC50,"[1]; Example 12, growth inhibition, read-out: activity, CCRF-CEM/VBL100 resistant cell lines",~0.137 µM
same,IC50,[1]; [16],0.126 µM
same,IC50,"[2]; Example 12, growth inhibition, read-out: activity, CCRF-CEM/Taxol resistant cell lines",~49 nM
same,IC50,[2]; [17],53 nM
same,IC50,[3]; [18],0.04 µM
same,IC50,"[3]; Example 12, growth inhibition, read-out: activity, CCRF-CEM tumor cell lines",~0.051 µM
same,IC50,[3]; [19],0.04 µM
same,IC50,"[5]; Example 12, growth inhibition, read-out: activity, CCRF-CEM/VM1 resistant cell lines",~55 nM
same,IC50,[5]; [20],55 nM
same,% Tubulin Binding,[4]; Example 5 Table 1,94%
"C/C1=C/C[C@@H](/C(C)=C/c2csc(C)n2)OC(=O)C[C@H](O)C(C)(C)C(=O)[C@H](C)[C@@H](O)[C@@H](C)CC2OC(C)(C)OC12 (stereo partly shown) [10, 11-ketal-dEpoB]",activity in CCRF-CEM cell lines resistant to Taxol,[2],demonstrated activity
same,activity in CCRF-CEM cell lines,[3],demonstrated activity
"C/C1=C/C[C@@H](/C(C)=C/c2csc(C)n2)OC(=O)C[C@H](O)C(C)(C)C(=O)[C@H](C)[C@@H](O)[C@@H](C)CCC1 [dEpoB, 12,13-desoxyepothilone B, reference compound]",IC50,"[1]; Homo sapiens, CCRF-CEM, 72 h, read-out: In Vitro Cytotoxicities (IC50) CCRF-CEM/VBL100",0.015 µM
same,IC50,"[1]; Homo sapiens, CCRF-CEM, 72 h, read-out: In vitro Cytotoxicities (IC50) C/VBL100",0.015 µM
same,IC50,"[1]; Homo sapiens, CCRF-CEM, 72 h, read-out: In vitro Cytotoxicities (IC50) CCRF-CEM/VBL100",0.015 µM
same,IC50,"[2]; Homo sapiens, CCRF-CEM, 72 h, read-out: In Vitro Cytotoxicities (IC50) CCRF-CEM/TAXOL",7 nM
same,IC50,"[2]; Homo sapiens, CCRF-CEM, 72 h, read-out: In vitro Cytotoxicities (IC50) C/Taxol",7 nM
same,IC50,"[2]; Homo sapiens, CCRF-CEM, 72 h, read-out: In vitro Cytotoxicities (IC50) CCRF-CEM/Taxol",7 nM
same,IC50,"[3]; Homo sapiens, CCRF-CEM, 72 h, read-out: In Vitro Cytotoxicities (IC50) CCRF-CEM",0.011 µM
same,IC50,"[3]; Homo sapiens, CCRF-CEM, 72 h, read-out: In vitro Cytotoxicities (IC50) CCRF-CEM",0.011 µM
same,IC50,"[3]; Homo sapiens, CCRF-CEM, 72 h, read-out: In vitro Cytotoxicities (IC50) CCRF-CEM(C)",0.011 µM
same,IC50,"[5]; Homo sapiens, CCRF-CEM, 72 h, read-out: In Vitro Cytotoxicities (IC50) CCRF-CEM/VMI",16 nM
same,IC50,"[5]; Homo sapiens, CCRF-CEM, 72 h, read-out: In vitro Cytotoxicities (IC50) C/VM1",16 nM
same,IC50,"[5]; Homo sapiens, CCRF-CEM, 72 h, read-out: In vitro Cytotoxicities (IC50) CCRF-CEM/VM1",16 nM
same,% Tubulin Binding,[4]; Example 5 Table 1,100%
same,% Tubulin Binding,[4]; [21],100%
C/C1=C\[C@@H]2C[C@H](C)[C@H](O2)[C@@H](C)C(=O)C(C)(C)[C@@H](O)CC(=O)O[C@H](/C(C)=C/c2csc(C)n2)CC1O (stereo partly shown) [13 (THF macrocycle)],IC50,[1]; [7],8.76 µM
same,IC50,[2]; [13],4240 nM
same,IC50,[3]; [8],0.761 µM
same,% Tubulin Binding,[4]; Example 5 Table 1,inactive
"CC(=O)O[C@H]1C(=O)[C@@]2(C)[C@H]([C@H](OC(=O)c3ccccc3)[C@]3(O)C[C@H](OC(=O)[C@H](O)[C@@H](NC(=O)c4ccccc4)c4ccccc4)C(C)=C1C3(C)C)[C@]1(OC(C)=O)CO[C@@H]1C[C@@H]2O [Taxol, paclitaxel, reference compound]",IC50,[1]; [9],0.827 µM
same,IC50,[2]; [10],81 nM
same,IC50,[3]; [11],0.0021 µM
same,IC50,[5]; [12],3 nM
"10,11-dehydro-12,13-desoxyepothilone B [Epo490]",IC50,[1]; [15],0.068 µM
same,IC50,[1]; [16],0.091 µM
same,IC50,[2]; [17],32 nM
same,IC50,[3]; [18],0.02 µM
same,IC50,[3]; [19],0.025 µM
same,IC50,[5]; [20],35 nM
CC1=C/C[C@@H](/C(C)=C/c2csc(CO)n2)OC(=O)C[C@H](O)C(C)(C)C(=O)[C@H](C)[C@@H](O)[C@@H](C)C\C=C\1 [Compound 21-OH-Epo490],IC50,[1]; [7],0.202 µM
same,IC50,[1]; [9],0.202 µM
same,activity in CCRF-CEM cell lines resistant to Taxol,[2],demonstrated activity
same,IC50,[2]; [13],51 nM
same,IC50,[2]; [10],51 nM
same,activity in CCRF-CEM cell lines,[3],demonstrated activity
same,IC50,[3]; [8],0.03 µM
same,IC50,[3]; [11],0.03 µM
same,IC50,[5]; [14],61 nM
same,IC50,[5]; [12],61 nM
same,% Tubulin Binding,[4]; Example 5 Table 1,77%
same,% Tubulin Binding,[4]; [21],77%
